The values that follow come from ChEMBL document CHEMBL1201862, “PubChem BioAssay data set” (2004).

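Interpolation was linear, between the two tested concentrations surrounding the appropriate level; five concentrations were tested over 48 hours in 96-well plates. GI50 marks 50% less growth.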 Activity calls are given as the source filed them. No stated cut-off is given here; in the data, active = GI50 up to about 1.1 µM and inactive = higher.

Among the test systems are HOP-92; M14; RPMI-8226; OVCAR-3; BT-549; SN12C; DU-145; ACHN; NCI-H226; LOX IMVI; MCF7; Malme-3M; SR; SNB-19; HOP-62; SF-295; UACC-62; CCRF-CEM.
Holding throughout (assay): DTP human tumour cell line panel, 48 h

As to `Cc1ccc(S(=O)(=O)N2CCSCCSCCSCCSCC2)cc1`, the GI50 in the assay with HOP-92 is 12.3 µM (inactive); in the assay on M14 it was 61.4 µM (inactive); in the assay on RPMI-8226 it was 77.1 µM (inactive); in the assay with OVCAR-3 it was 35.5 µM (inactive); in the assay on BT-549, 25.4 µM (inactive); with SN12C, > 58.5 µM (inactive). Further, the GI50 in the assay with DU-145 was > 100 µM (inactive); in the assay with ACHN it was > 58.3 µM (inactive); in the assay on NCI-H226 it was > 49.9 µM (inactive); with LOX IMVI it was 59.6 µM (inactive); in the assay on MCF7 it was > 72.9 µM (inactive); in the assay on Malme-3M, > 72.8 µM (inactive). Moreover, the GI50 with SR is > 74.3 µM (inactive); in the assay on SNB-19 it was 24.8 µM (inactive); in the assay with HOP-62 it was > 40.6 µM (inactive); with SF-295 it was 22.6 µM (inactive); with UACC-62, 17.1 µM (inactive); in the assay with CCRF-CEM it was 64.3 µM (inactive).

`COc1cc2c(c(O)c1OC)C(=O)[C@@H]1CCC(=O)N1C2`: the GI50 with HOP-92 is 71 µM (inactive); with M14, > 100 µM (inactive); in the assay on RPMI-8226, > 100 µM (inactive); in the assay with OVCAR-3, > 100 µM (inactive); in the assay with BT-549, > 100 µM (inactive); in the assay with SN12C it was > 100 µM (inactive). Moreover, the GI50 with DU-145, in the assay on ACHN, in the assay with NCI-H226, in the assay with LOX IMVI, in the assay with MCF7 and in the assay on Malme-3M was > 100 µM (inactive) in each case. The GI50 in the assay on SR, with SNB-19, in the assay on HOP-62, with SF-295, with UACC-62 and with CCRF-CEM was > 100 µM (inactive) throughout.

Regarding `O=C1COc2ccc([N+](=O)[O-])cc2C(=O)C1`, the GI50 with HOP-92 is 0.001 µM (active); with M14, > 10 µM (inactive); in the assay on RPMI-8226, > 10 µM (inactive); with OVCAR-3, > 10 µM (inactive); in the assay with BT-549 it was > 10 µM (inactive); with SN12C, > 10 µM (inactive). In addition, the GI50 with DU-145, with ACHN, in the assay on NCI-H226, with LOX IMVI, with MCF7 and in the assay on Malme-3M was > 10 µM (inactive) each time. In addition, the GI50 in the assay on SR, with SNB-19, with HOP-62, with SF-295, in the assay on UACC-62 and in the assay with CCRF-CEM was > 10 µM (inactive) each time.

For `COC1/C=C/C(C)C(OC)CC(O)/C=C/C(C)C(C(C)C(OC)C(C)CCC(=O)C(C)C(C/C=C/N(C)C=O)OC)OC(=O)/C=C/C=C(\C)CC(OC)CC2=CC(=O)O[C@@H](C(C)C(OC)C1)[C@H]2O` (some centres undefined), the 50% growth inhibitory concentration (GI50) was 0.0634 µM (active) with HOP-92; 0.056 µM (active) in the assay with M14; 0.0536 µM (active) with RPMI-8226; 0.049 µM (active) with OVCAR-3; 0.142 µM (active) in the assay with BT-549; 0.379 µM (active) in the assay on SN12C. Further, the GI50 in the assay with DU-145 is 0.544 µM (active); with ACHN it was 0.091 µM (active); with NCI-H226 it was 0.122 µM (active); in the assay with LOX IMVI it was 0.0223 µM (active); with MCF7, 0.0982 µM (active); in the assay with Malme-3M, 0.069 µM (active). The concentration for 50% growth inhibition (GI50) with SR is 0.0929 µM (active); with SNB-19, 0.0962 µM (active); in the assay on HOP-62 it was 0.0537 µM (active); in the assay on SF-295, 0.11 µM (active); in the assay on UACC-62, 0.148 µM (active); in the assay on CCRF-CEM, 0.621 µM (active).

In the case of `COCOC1C=CCCCC2=CC(C)=C(CC1)O2` (centres undefined), the GI50 in the assay with HOP-92 is > 100 µM (inactive); with M14, > 100 µM (inactive); in the assay with RPMI-8226 it was > 100 µM (inactive); with OVCAR-3, 68.4 µM (inactive); in the assay with BT-549, > 100 µM (inactive); in the assay with SN12C, > 100 µM (inactive). The GI50 in the assay with DU-145, with ACHN, with NCI-H226, with LOX IMVI, in the assay with MCF7 and in the assay with Malme-3M was > 100 µM (inactive) throughout. Besides, the GI50 with SR was 61.7 µM (inactive); in the assay on SNB-19 it was > 100 µM (inactive); in the assay on HOP-62, > 100 µM (inactive); with SF-295, > 100 µM (inactive); in the assay on UACC-62 it was > 100 µM (inactive); in the assay with CCRF-CEM, 74.6 µM (inactive).

As for `O=c1[nH]nc(Nc2ccc(Cl)cc2)c2nnn(C3CCCCC3)c12`, the GI50 was 22.4 µM (inactive) in the assay on HOP-92; 55.1 µM (inactive) in the assay with M14; 50.7 µM (inactive) with RPMI-8226; 37.2 µM (inactive) with OVCAR-3; > 100 µM (inactive) with BT-549; > 100 µM (inactive) in the assay on SN12C. Also, the GI50 was > 100 µM (inactive) in the assay with DU-145; > 100 µM (inactive) in the assay on ACHN; 86.7 µM (inactive) in the assay on NCI-H226; 16.4 µM (inactive) with LOX IMVI; 58.5 µM (inactive) with MCF7; 50.8 µM (inactive) in the assay on Malme-3M. In addition, the GI50 in the assay with SR is 7.19 µM (inactive); with SNB-19 it was > 100 µM (inactive); with HOP-62, 30.8 µM (inactive); with SF-295, > 100 µM (inactive); in the assay on UACC-62, > 100 µM (inactive); in the assay on CCRF-CEM, 26.7 µM (inactive).

Regarding `COc1cccc(C2c3cc4c(cc3OC(N3CCCCC3)C2C)OCO4)c1OC` (centres undefined), the GI50 with HOP-92 is 5.4 µM (inactive); in the assay with M14, 12.7 µM (inactive); with RPMI-8226, 3.44 µM (inactive); in the assay with OVCAR-3, 4.15 µM (inactive); in the assay with BT-549, 9.06 µM (inactive); with SN12C, 5.73 µM (inactive). Besides, the GI50 with DU-145 is 3.64 µM (inactive); with ACHN, 3.19 µM (inactive); with NCI-H226 it was 3.93 µM (inactive); in the assay on LOX IMVI, 4.85 µM (inactive); in the assay on MCF7, 5.71 µM (inactive); in the assay on Malme-3M it was 11.9 µM (inactive). Moreover, the GI50 in the assay on SR was 1.24 µM (inactive); in the assay with SNB-19, 14.8 µM (inactive); in the assay on HOP-62, 17.9 µM (inactive); in the assay with SF-295 it was 4.27 µM (inactive); with UACC-62, 12.9 µM (inactive); with CCRF-CEM, 3.46 µM (inactive).

For the compound `NC(=O)CC(N)C(N)=O` (centres undefined), the GI50 in the assay on HOP-92, in the assay on M14, in the assay with RPMI-8226, in the assay with OVCAR-3, with BT-549 and with SN12C was > 100 µM (inactive) throughout. Moreover, the GI50 with DU-145, with ACHN, with NCI-H226, in the assay on LOX IMVI, with MCF7 and in the assay with Malme-3M was > 100 µM (inactive) throughout. Also, the GI50 in the assay on SR, with SNB-19, in the assay with HOP-62, in the assay with SF-295, with UACC-62 and in the assay with CCRF-CEM was > 100 µM (inactive) in each case.

Broadly, the GI50 is the concentration giving 50% growth inhibition.
